Test results as given in ChEMBL document CHEMBL5365457, “Selective HDAC3 Inhibitors with Potent In Vivo Antitumor Efficacy against Triple-Negative Breast Cancer” (J Med Chem, 2023).
Activity calls are given as the source filed them. The rule behind the calls is not given here.

Key:
Histone deacetylase 8 [1] = biological target: T1, Histone deacetylase 8 (Homo sapiens, UniProt Q9BY41); assay: Inhibition of human recombinant HDAC8 incubated for 10 mins by fluorescence based microplate analysis
T1 sequence (Q9BY41 whole entry): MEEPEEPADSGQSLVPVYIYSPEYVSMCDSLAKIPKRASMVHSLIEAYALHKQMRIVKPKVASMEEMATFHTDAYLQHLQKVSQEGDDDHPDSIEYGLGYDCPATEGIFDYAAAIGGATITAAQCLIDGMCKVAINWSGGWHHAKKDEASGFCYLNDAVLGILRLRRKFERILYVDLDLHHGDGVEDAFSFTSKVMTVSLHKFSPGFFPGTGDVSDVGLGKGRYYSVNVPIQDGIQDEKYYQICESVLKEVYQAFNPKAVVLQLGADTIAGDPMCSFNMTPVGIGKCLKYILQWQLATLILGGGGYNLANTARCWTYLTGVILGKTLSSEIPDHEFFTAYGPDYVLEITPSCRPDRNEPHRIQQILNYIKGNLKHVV

[2] = biological target: T2, Protein deacetylase HDAC6 (Homo sapiens, UniProt Q9UBN7); assay: Inhibition of human recombinant HDAC6 incubated for 15 mins by fluorescence based microplate analysis
T2 sequence (Q9UBN7 whole entry): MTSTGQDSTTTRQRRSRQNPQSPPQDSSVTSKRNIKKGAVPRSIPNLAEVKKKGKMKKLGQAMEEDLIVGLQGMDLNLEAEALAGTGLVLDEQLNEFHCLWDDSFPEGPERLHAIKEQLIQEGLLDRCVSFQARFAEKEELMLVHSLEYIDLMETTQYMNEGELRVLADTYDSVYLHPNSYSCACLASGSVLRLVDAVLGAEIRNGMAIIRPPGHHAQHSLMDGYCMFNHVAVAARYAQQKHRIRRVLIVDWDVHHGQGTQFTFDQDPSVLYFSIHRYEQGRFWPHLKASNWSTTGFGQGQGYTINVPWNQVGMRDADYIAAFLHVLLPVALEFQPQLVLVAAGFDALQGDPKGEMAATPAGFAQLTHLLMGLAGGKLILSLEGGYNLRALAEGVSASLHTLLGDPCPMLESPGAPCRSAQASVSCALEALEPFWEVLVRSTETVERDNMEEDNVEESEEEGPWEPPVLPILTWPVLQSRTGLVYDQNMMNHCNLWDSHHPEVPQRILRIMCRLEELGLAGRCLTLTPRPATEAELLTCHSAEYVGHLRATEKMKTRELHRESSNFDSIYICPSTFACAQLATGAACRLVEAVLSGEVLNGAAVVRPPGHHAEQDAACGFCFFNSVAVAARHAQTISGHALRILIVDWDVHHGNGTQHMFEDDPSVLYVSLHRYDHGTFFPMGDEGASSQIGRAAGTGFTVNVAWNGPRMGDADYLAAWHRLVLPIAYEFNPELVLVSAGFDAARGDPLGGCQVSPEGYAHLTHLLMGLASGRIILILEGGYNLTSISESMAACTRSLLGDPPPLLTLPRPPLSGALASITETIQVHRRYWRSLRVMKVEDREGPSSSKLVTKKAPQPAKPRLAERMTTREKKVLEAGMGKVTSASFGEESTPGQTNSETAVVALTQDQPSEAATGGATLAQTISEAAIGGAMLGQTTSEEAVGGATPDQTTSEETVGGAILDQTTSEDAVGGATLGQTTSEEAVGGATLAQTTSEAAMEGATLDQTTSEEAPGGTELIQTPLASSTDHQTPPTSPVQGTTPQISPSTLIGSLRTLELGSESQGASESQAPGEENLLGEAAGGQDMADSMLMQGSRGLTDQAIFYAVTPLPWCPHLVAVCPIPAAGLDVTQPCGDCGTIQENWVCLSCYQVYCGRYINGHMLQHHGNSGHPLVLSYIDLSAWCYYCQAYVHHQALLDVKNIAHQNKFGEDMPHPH

[3] = biological target: T2, Protein deacetylase HDAC6; assay: Inhibition of HDAC6 (unknown origin)
Histone deacetylase 8 [4] = biological target: T1, Histone deacetylase 8; assay: Inhibition of HDAC8 (unknown origin)
[5] = Toxicity in BALB/c mouse implanted with mouse 4T1 cells assessed as spleen damage at 5 to 15 mg/kg, ip measured after 21 days by H and E staining based assay; type: organism-based; settings: in vivo, 504 h, dose 5-15 mg/kg, time 21 day
MCF7 = assay: Cytotoxicity against human MCF7 cells assessed as inhibition of cell growth incubated for 72 hrs by MTT assay; type: functional, cell-based; settings: MCF7, 72 h
4T1 [6] = assay: Antitumor activity against mouse 4T1 cells implanted in BALB/c mouse assessed as increase in number of lung nodules at 15 mg/kg, ip measured for 7 days by H and E staining based assay; type: functional, organism-based; settings: time 7.0 day
MDA-MB-453 = assay: Cytotoxicity against human MDA-MB-453 cells assessed as inhibition of cell growth incubated for 72 hrs by MTT assay; type: functional, cell-based; settings: MDA-MB-453, 72 h
[7] = AUC (0 to t) in Wistar rat at 15 mg/kg, ip measured upto 24 hrs by HPLC analysis; type: ADME, organism-based; set-up: dose 15 mg/kg, time < 24 hrs, route ip; settings: in vivo
4T1 [8] = assay: Cell cycle arrest in mouse 4T1 cells assessed as accumulation of cells at G1 phase at 1.54 uM incubated for 72 hrs by flow cytometry; type: functional
4T1 [9] = assay: Cell cycle arrest in mouse 4T1 cells assessed as accumulation of cells at G1 phase at 38.6 uM incubated for 72 hrs by flow cytometry; type: functional
[10] = Toxicity in BALB/c mouse implanted with mouse 4T1 cells assessed as liver damage at 5 to 15 mg/kg, ip measured after 21 days by H and E staining based assay; type: organism-based; settings: in vivo, 504 h, dose 5-15 mg/kg, time 21 day
4T1 [11] = assay: Antitumor activity against mouse 4T1 cells implanted in BALB/c mouse assessed as reduction in Ki-67 expression in tumor tissue at 5 to 15 mg/kg, ip measured for 21 days by fluorescence based microscopic analysis; type: functional, organism-based; settings: dose 5-15 mg/kg, time 21.0 day
4T1 [12] = assay: Antitumor activity against mouse 4T1 cells implanted in BALB/c mouse assessed as reduction in tumor volume at 5 mg/kg, ip administered 5 times a week for 21 days (reference value: 51.91 +/-7.45 mm3); type: functional; settings: time 21 day
[13] = Tmax in Wistar rat at 15 mg/kg, ip measured upto 24 hrs by HPLC analysis; type: ADME, organism-based; settings: in vivo
[14] = Cytotoxicity against human HCEC cells assessed as inhibition of cell growth incubated for 72 hrs by MTT assay; type: toxicity, cell-based; settings: human, HCEC cells
[15] = Toxicity in BALB/c mouse implanted with mouse 4T1 cells assessed as kidney damage at 5 to 15 mg/kg, ip measured after 21 days by H and E staining based assay; type: organism-based; settings: in vivo, 504 h, dose 5-15 mg/kg, time 21 day
4T1 [16] = assay: Antitumor activity against mouse 4T1 cells implanted in BALB/c mouse assessed as tumor growth inhibition at 15 mg/kg, ip measured on day 21; type: functional; settings: 4T1, 504 h, time 21 day, read-out: TGI
4T1 [17] = assay: Cytotoxicity against mouse 4T1 cells assessed as inhibition of cell growth incubated for 72 hrs by MTT assay; type: functional, cell-based; settings: 4T1, 72 h
4T1 [18] = assay: Induction of apoptosis in mouse 4T1 cells at 1.54 uM incubated for 72 hrs by annexin/PI staining based flow cytometry analysis (reference value: 1.35%); type: functional
[19] = MRT (0 to infinity) in Wistar rat at 15 mg/kg, ip measured upto 24 hrs by HPLC analysis; type: ADME, organism-based; settings: in vivo
4T1 [20] = assay: Antitumor activity against mouse 4T1 cells implanted in BALB/c mouse assessed as tumor growth inhibition at 15 mg/kg, ip measured on day 14; type: functional; settings: 4T1, 336 h, time 14 day, read-out: TGI
[21] = Cmax in Wistar rat at 15 mg/kg, ip measured upto 24 hrs by HPLC analysis; type: ADME, organism-based; set-up: dose 15 mg/kg, time < 24 hrs, route ip; settings: in vivo
[22] = Apparent volume of distribution in Wistar rat at 15 mg/kg, ip measured upto 24 hrs by HPLC analysis; type: ADME, organism-based; settings: in vivo
4T1 [23] = assay: Antitumor activity against mouse 4T1 cells implanted in BALB/c mouse assessed as tumor growth inhibition at 15 mg/kg, ip measured on day 7; type: functional; settings: 4T1, 168 h, time 7 day, read-out: TGI
MDA-MB-231 [24] = assay: Cytotoxicity against human MDA-MB-231 cells assessed as inhibition of cell growth incubated for 72 hrs by MTT assay; type: functional, cell-based; settings: MDA-MB-231, 72 h
4T1 [25] = assay: Antitumor activity against mouse 4T1 cells implanted in BALB/c mouse assessed as increase in apoptosis in tumor tissue at 5 to 15 mg/kg, ip by TUNEL staining based microscopic analysis; type: functional, organism-based; settings: dose 5-15 mg/kg
[26] = Half life in Wistar rat at 15 mg/kg, ip measured upto 24 hrs by HPLC analysis; type: ADME, organism-based; settings: in vivo
4T1 [27] = assay: Antitumor activity against mouse 4T1 cells implanted in BALB/c mouse assessed as reduction in tumor volume at 15 mg/kg, ip administered 5 times a week for 21 days (reference value: 52.25 +/-13.24 mm3); type: functional; settings: time 21 day
4T1 [28] = assay: Cell cycle arrest in mouse 4T1 cells assessed as accumulation of cells at G1 phase at 7.72 uM incubated for 72 hrs by flow cytometry; type: functional
[29] = AUMC (0 to infinity) in Wistar rat at 15 mg/kg, ip measured upto 24 hrs by HPLC analysis; type: ADME, organism-based; settings: in vivo
[30] = Cytotoxicity against Oxaliplatin-resistant human MDA-MB-231 cell assessed as reduction in cell viability incubated for 72 hrs by MTT assay; type: functional, cell-based; settings: Oxaliplatin-resistant MDA-MB-231 cell
[31] = Cytotoxicity against human MCF-10A cells assessed as inhibition of cell growth incubated for 72 hrs by MTT assay; type: toxicity, cell-based
MDA-MB-231 [32] = assay: Cytotoxicity against wild type human MDA-MB-231 cells assessed as reduction in cell viability incubated for 72 hrs by MTT assay; type: functional, cell-based; settings: MDA-MB-231, 72 h
[33] = Toxicity in BALB/c mouse implanted with mouse 4T1 cells assessed as heart damage at 5 to 15 mg/kg, ip measured after 21 days by H and E staining based assay; type: organism-based; settings: in vivo, 504 h, dose 5-15 mg/kg, time 21 day
[34] = Apparent oral clearance in Wistar rat at 15 mg/kg, ip measured upto 24 hrs by HPLC analysis; type: ADME, organism-based; settings: in vivo
[35] = AUC (0 to infinity) in Wistar rat at 15 mg/kg, ip measured upto 24 hrs by HPLC analysis; type: ADME, organism-based; set-up: dose 15 mg/kg, time < 24 hrs, route ip; settings: in vivo
4T1 [36] = assay: Antitumor activity against mouse 4T1 cells implanted in BALB/c mouse assessed as reduction in tumor weight at 15 mg/kg, ip administered 5 times a week for 21 days; type: functional; settings: time 21 day

Compound: Nc1ccccc1NC(=O)c1cnc(NCc2ccccc2)cn1
- IC50 (Histone deacetylase 8 [1]): 15.6 µM
- IC50 [2]: 37.2 µM

Compound: Nc1ccccc1NC(=O)c1cnccn1
- IC50 [3]: 34.2 µM
- IC50 (Histone deacetylase 8 [4]): 28.5 µM

Compound: CCCCNNC(=O)c1ccc(Br)cc1
- Activity [5]: Non-Toxic
- IC50 (MCF7): 15.4 µM
- Activity (4T1 [6]): inactive
- IC50 (MDA-MB-453): 25.3 µM
- AUC(0-t) at 24 h [7]: 14500 ng·h/mL
- Activity (4T1 [8]): 50.4%
- Activity (4T1 [9]): 52.3%
- Activity [10]: Non-Toxic
- Activity (4T1 [11]): Active
- Activity (4T1 [12]): 1005.32 mm3
- Tmax [13]: 2 h
- IC50 at 72 h [14]: 95.4 µM
- Activity [15]: Non-Toxic
- inhibition in vivo at 15 mg/kg (4T1 [16]): 39.5%
- IC50 (4T1 [17]): 7.72 µM
- Activity (4T1 [18]): 30.4%
- MRT inf [19]: 3.66 h
- inhibition in vivo at 15 mg/kg (4T1 [20]): 38.4%
- Cmax [21]: 5240 ng/mL
- Vz/F [22]: 7.65 (mg/kg)/(ug/ml)
- inhibition in vivo at 15 mg/kg (4T1 [23]): 55.6%
- IC50 (MDA-MB-231 [24]): 24.7 µM
- Activity (4T1 [25]): Active
- half-life [26]: 5.18 h
- Activity (4T1 [27]): 520.32 mm3
- Activity (4T1 [28]): 41.4%
- AUMC [29]: 53.64 ug/ml.hr^2
- IC50 [30]: 27.4 µM
- IC50 at 72 h [31]: 99.3 µM
- IC50 (MDA-MB-231 [32]): 24.7 µM
- Activity [33]: Non-Toxic
- CL/F [34]: 1.03 (mg/kg)/(ug/ml).hr
- AUC(0-inf) [35]: 14700 ng·h/mL
- Activity (4T1 [36]): 0.29 g
